In patent US20140030808A1, “Method for Cellular RNA Expression” (BIONTECH AG, priority 2010, published 2014):

Legend:
[1] = tested on: immature dendritic cells (iDCs); format: cell-based, human; conditions: 0.5 μM to 2 μM
[2] = tested on: CCD1079SK fibroblasts; assay: Intracellular abundance and half-life of IVT-RNA constructs (qRT-PCR); format: cell-based, human
Protocol: (A) CCD1079SK fibroblasts were either mock electroporated or electroporated with IVT RNA encoding for firefly luciferase (1 μg), eGFP (1.25 μg), SV40 Large T (1.25 μg), HPV16-E6 (1.25 μg), OCT4, SOX2, KLF4, cMYC, NANOG and LIN28 (2.5 μg OCT4 and equimolar amounts for the others). Electroporations were performed in 2 mm gap cuvettes using optimized parameters for CCDs. After electroporation cells were either left untreated or incubated with 2 μM C13H8N4OS for 24 h or 48 h. After 72 h cells were harvested to extract total RNA and perform qRT-PCR analysis for the codon optimized IVT-RNA constructs OCT4 and SOX2. […] Decay of transcripts was plotted against time and difference between half-lifes (t1/2) of the construct in absence or presence of C13H8N4OS was calculated (Δt1/2=t1/2 (+C13H8N4OS)−t1/2 (−C13H8N4OS)). […]
Total cellular RNA was extracted from cells with RNeasy Mini Kit or RNeasy Micro Kit (Qiagen, Hilden, Germany), reverse transcribed with oligo-dT18 using Superscript II (Invitrogen, Carlsbad, Calif., USA), and subjected to real-time quantitative analysis on ABI PRISM 7700 Sequence Detection System instrument and software (Applied Biosystems, Foster City, Calif., USA) using the QuantiTect SYBR Green PCR Kit (Qiagen). […]

[3] = tested on: Primary human foreskin fibroblasts (HFF); format: cell-based; conditions: 24 h supernatants
[4] = tested on: murine embryonic fibroblasts (MEFs); assay: Luciferase reporter gene assay in murine fibroblasts electroporated with IVT RNA; format: cell-based; conditions: 0.5 μM to 2 μM, mouse fibroblasts, after electroporation
Protocol: (A-C) Primary human foreskin fibroblasts from different donors and suppliers (panel A: BJ fibroblasts; panel B CCD1079Sk; panel C: HFF) and (D) murine embryonic fibroblasts (MEFs) were electroporated with 0.5 μg IVT RNA encoding for firefly luciferase and 1.25 μg IVT RNA encoding for enhanced GFP (eGFP). The cells were plated in duplicates into 96-well-plates at a density of 30000 cells/well. The cells were either left untreated or incubated with increasing amounts of C13H8N4OS (PKR-inhibitor) ranging from 0.5 μM to 2 μM as indicated in the panel legends. Luciferase activity was measured at the indicated time points. Mean values of the duplicates are given.
Transfer of IVT-RNA into cells was performed by electroporation (EP). To this end, 1-10×10^7 cells per EP were harvested, washed sequentially with PBS supplemented with 2 mM EDTA and X-VIVO 15 medium (Lonza), resuspended in 125 μl X-VIVO 15 medium and transferred to a 2-mm gap sterile electroporation cuvette (Bio-RAD, Hercules, Calif., USA). […]
For luciferase assays, cells electroporated with in vitro transcribed RNA coding for luciferase were plated in 96-well white flat-bottom microplates (Nunc, Langenselbold, Germany) and incubated at 37° C. […] Bioluminescence flux was measured with the Infinite M200 microplate luminescence reader (Tecan, Crailsheim, Germany) with 1 s integration time. […]

SMILES: O=C1Nc2ccc3ncsc3c2/C1=C/c1c[nH]cn1 [C13H8N4OS, 6,8-dihydro-8-(1H-imidazol-5-ylmethylene)-7H-pyrrolo[2,3-g]benzothiazol-7-one]
- luciferase expression [1]: loss of luciferase expression
- abundance of IVT RNA (OCT4, SOX2 constructs) ([2]; 2 μM for 24 h or 48 h, harvested after 72 h): increased the abundance of IVT RNA for 72 h
- prolongation of half life of IVT RNA constructs OCT4, SOX2, KLF4 and cMYC (Δt1/2) ([2]; 2 μM for 80 h, presence vs absence of C13H8N4OS): 1 to 2.5 h
- secretion of IFNβ ([3]; 2 μM C13H8N4OS, HFF electroporated with eGFP IVT RNA): remarkably enhanced
- secretion of IFNα ([3]; HFF, with or without 2 μM C13H8N4OS): not observed
- luciferase expression [4]: dose dependent increase
